The values below come from patent US20230165872A1, “COMBINATION OF BCMA-DIRECTED T CELL THERAPY AND AN IMMUNOMODULATORY COMPOUND” (Juno Therapeutics, Inc., priority 2020, published 2023).

The subject of one test is Ikaros. Put plainly: Intracellular Ikaros expression in BCMA-bead stimulated anti-BCMA CAR T cells (flow cytometry, MFI). The format is cell-based, human. On the procedure: (§1) A BCMA-Fc fusion protein containing the extracellular domain of human BCMA and a human IgG1Fc was conjugated to beads by covalently coupling to the surface of commercially available tosyl-activated magnetic beads having a diameter of approximately […] (M-450 beads, ThermoFisher, Waltham Mass.) (see e.g. International published PCT App. No. WO2019/027850). Following incubation, anti-BCMA CAR-expressing T cells were stained with antibodies and analyzed by flow cytometry to assess intracellular levels of Ikaros and Aiolos in CD4+CAR+ or CD8+CAR+ cells, as measured by median fluorescence intensity (MFI). Median fluorescence intensity (MFI) values for Ikaros and Aiolos were normalized and calculated as a percentage relative to vehicle control.
On the technique in general: In flow cytometry, cells or beads pass a laser one at a time.

The subject of the next test is lymphoma cells. The following applies: cited from earlier work.
Test [1] deals with OPM2 (multiple myeloma) cells. Kind of test: Murine orthotopic OPM-2 tumor model (sensitive), anti-BCMA CAR T cells plus Compound A. The format is in vivo, mouse. The following applies: for tumor burden (BLI) versus anti-BCMA CAR T cells alone: combination with 0.5×10^6 CAR T cells, 1 or 3 mg/kg oral, FIG. 6A; for survival versus anti-BCMA CAR T cells alone: FIG. 6B. The method, then: Anti-tumor effects of anti-BCMA CAR T cells, alone and in combination with concurrent or delayed administration of Compound A (iberdomide, (S)-3-[4-(4-morpholin ylmethyl-benzyloxy)-1-oxo-1,3-dihydro-isoindol-2-yl]-piperidine-2,6-dione), were assessed in disseminated tumor models. The combinatorial effects were assessed in both tumor models sensitive to and resistant to the immunomodulatory compound. The anti-BCMA CAR T cells used in the study were produced as described in Example 1.
The effects of anti-BCMA CAR-T cells in combination with Compound A was assessed in a murine orthotopic tumor model using OPM-2 cells, which is an tumor model sensitive to the immunomodulatory compound. Mice (NOD.Cg-Prkdc^scidIL-2rg^tm1Wj1/SzJ mice (NSG; Jackson Labs)) were injected intravenously (i.v.) with 2×10^6 OPM2 (multiple myeloma) cells transfected with firefly luciferase (OPM2-ffluc). Tumor engraftment was allowed to occur for 13 days prior to staging (14 days before CAR-T cell administration) and verified using bioluminescence imaging.
In one study, mice were administered Compound A (1 mg/kg or 3 mg/kg) via oral administration once a day starting from the day before administration of 0.5×10^6 anti-BCMA CAR T cells, and administration of Compound A was continued once a day until 32 days post-CAR T cell administration (concurrent dosing). In another study, mice were administered 0.5×10^6 anti-BCMA CAR T cells, and then Compound A (1 mg/kg or 3 mg/kg) was administered via oral administration once a day starting 12 days after anti-CAR T cell administration, which was after the peak of CAR-expressing T cell expansion, and administration was continued for 21 days until 32 days post-CAR T cell administration (delayed dosing).
For bioluminescence imaging (BLI), mice received intraperitoneal (i.p.) injections of luciferin substrate (CaliperLife Sciences, Hopkinton, Mass.) resuspended in PBS (15 μg/g body weight). The average radiance (p/s/cm^2/sr) was determined. Survival of mice treated as described above were assessed and compared over time post-infusion of CAR-expressing T cells. Survival curves were generated using the Kaplan-Meier method (GraphPad Prism 7.0, GraphPad Software, La Jolla).
The numbers of CD3+ CAR T cells were determined in the blood at day 6 and day 14 by flow cytometry using antibodies directed against CD3 and the surrogate marker on the CAR-expressing cells.

Another test has as its system RPMI-8226 target cells. Kind of test: Acute co-culture cytokine secretion of anti-BCMA CAR T cells with RPMI-8226. Type of test: cell-based, human. Particulars: RPMI-8226, E:T 1:1, 24 hours, 0.01-10,000 nM, FIG. 2A. On the procedure: Anti-tumor effects of anti-BCMA CAR T cells, alone and in combination with cell immunomodulatory compounds Compound A (iberdomide, (S)-3-[4-(4-morpholin-4-ylmethyl-benzyloxy)-1-oxo-1,3-dihydro-isoindol-2-yl]-piperidine-2,6-dione) or Compound B ((S)-4-(4-(4-(((2-(2,6-dioxopiperidin-3-yl)-1-oxoisoindolin-4-yl)oxy)methyl)benzyl)piperazin-1-yl)-3-fluorobenzonitrile), were assessed in two different BCMA-expressing target multiple myeloma cell lines RPMI-8226 or OPM-2. Anti-BCMA CAR+ T cells were generated as described in Example 1.
The anti-BCMA CAR-expressing T cells were incubated with target cells, RPMI 8226 (BCMA^med human multiple myeloma cell line) or OPM2 cells (BCMA^med human multiple myeloma cell line) target cells, at an E:T ratio of 1:1. The co-culture incubation with target cells was carried out in the presence of Compound A (0.01 nM, 0.1 nM, 1 nM, 10 nM, 100 nM, 1000 nM, or 10,000 nM) or Compound B (0.01 nM, 0.1 nM, 1 nM, 10 nM, 100 nM, 1000 nM, or 10,000 nM).

For the next test, the system named is Aiolos and Ikaros. Particulars: compared with lenalidomide and pomalidomide; cited from earlier work.
The next test deals with Aiolos. Kind of test: Intracellular Aiolos expression in BCMA-bead stimulated anti-BCMA CAR T cells (flow cytometry, MFI). Particulars: CD4+CAR+ or CD8+CAR+ cells; 24 or 72 hours; lenalidomide 1000 nM, Compound A 1, 10, 100 nM, Compound B 0.1, 1, 10 nM. The format is cell-based, human. The method, then:
as §1

Test [2] has as its system Irradiated DF-15R target cells. Put plainly: Serial stimulation assay of anti-BCMA CAR T cells. The format is cell-based, human. On the procedure:
A serial stimulation assay or serial re-challenge assay was used to assess activity of anti-BCMA CAR T cells following repeated rounds of antigen stimulation, in the presence and absence of Compound A (iberdomide, (S)-3-[4-(4-morpholin-4-ylmethyl-benzyloxy)-1-oxo-1,3-dihydro-isoindol-2-yl]-piperidine-2,6-dione).
Anti-BCMA CAR+ T cells (generated as described in Example 1) were plated in triplicate at 1×10^5 cells/well on 96-well plates. Irradiated DF-15R target cells, which is a multiple myeloma (MM) cell line generated to be resistant to effect of cell immunomodulatory compounds (Lopez-Girona et al. Leukemia, 2012; 26:2326-2335), were added at an effector-to-target (E:T) ratio of 1:2 in the presence or absence of various concentrations (10 nM) of Iberdomide.
Every 3-4 days (start of each new round), CAR T cells were counted. Cells then were harvested and re-plated at the initial seeding density with fresh media, newly-added Iberdomide at the same concentration, where applicable, and newly-thawed, irradiated target cells. Five rounds of stimulation were carried out during a 19 day culture period. At day 5 and day 9 (24 hours after a re-plating (reset) cytokine production in the supernatant was assessed. Results were assessed in two different donors.

Setting [3] is: 24 hours after first reset (day 5) or second reset (day 9), FIG. 5B.

For `O=C1CC[C@H](N2Cc3c(OCc4ccc(CN5CCOCC5)cc4)cccc3C2=O)C(=O)N1` [Compound A, (S)-3-[4-(4-morpholin-4-ylmethyl-benzyloxy)-1-oxo-1,3-dihydro-isoindol-2-yl]-piperidine-2,6-dione], the “intracellular Ikaros expression (MFI, percentage relative to vehicle control)” value in the test on Ikaros (CD4+CAR+ or CD8+CAR+ cells, 24 or 72 hours, lenalidomide 1000 nM, Compound A 1, 10, 100 nM, Compound B 0.1, 1, 10 nM) is “concentration dependent decrease”. In the test with Ikaros (stimulated anti-BCMA CAR T cells), the “potency in decreasing Ikaros and Aiolos expression, compared with lenalidomide” value is listed as “more potent than lenalidomide”. Further, the “direct anti-proliferative effects on lymphoma cells” value with lymphoma cells is recorded as “potent direct anti-proliferative effects”. In test [1] (Compound A alone, 1 or 3 mg/kg oral once a day), the “single agent antitumor activity” value is on record as “some single agent antitumor activity”. The “tumor burden (BLI) versus anti-BCMA CAR T cells alone” value in test [1] (concurrent dosing) and in test [1] (delayed dosing from day 12) was “reduce tumor burden” each time. Also, the “survival versus anti-BCMA CAR T cells alone” value is recorded as “improve survival” in test [1] (combination, concurrent dosing) and “improve survival” in test [1] (combination, delayed dosing). The “numbers of CD3+ CAR+ T cells in the blood” value in test [1] (combination, concurrent regimen, day 6 and day 14, FIG. 6C) is recorded as “trend towards increased numbers”. The “CAR T cytokine production (IL-2, TNFα, IFN-gamma in supernatant)” value with RPMI-8226 target cells is “enhanced”. Besides, in the test with Aiolos and Ikaros, the “efficiency of degrading Aiolos and Ikaros” value was “more efficient at degrading Aiolos and Ikaros than lenalidomide and pomalidomide”. In addition, the “intracellular Aiolos expression (MFI, percentage relative to vehicle control)” value in the test with Aiolos is on record as “concentration dependent decrease”. The “anti-BCMA CAR cell counts (number of population doublings)” value in test [2] (10 nM, E:T 1:2, five rounds over 19 days, two donors, FIG. 5A) is recorded as “enhanced”. The IL-2 production result in test [2] (setting [3]) was “increased”. Besides, in test [2] (setting [3]), the TNF-alpha production result is listed as “increased”.
